{
  "source": "patent US5073540A",
  "about": "“Composite binding site drugs” (Receptron, priority 1989, dated 1991)",
  "key": {"[1]": {"target": "T1, purified human IR (Homo sapiens, UniProt P06213)", "T1 construct": "from tissue; host or cells: human placenta", "T1 sequence (P06213 28-758 limits assumed)": "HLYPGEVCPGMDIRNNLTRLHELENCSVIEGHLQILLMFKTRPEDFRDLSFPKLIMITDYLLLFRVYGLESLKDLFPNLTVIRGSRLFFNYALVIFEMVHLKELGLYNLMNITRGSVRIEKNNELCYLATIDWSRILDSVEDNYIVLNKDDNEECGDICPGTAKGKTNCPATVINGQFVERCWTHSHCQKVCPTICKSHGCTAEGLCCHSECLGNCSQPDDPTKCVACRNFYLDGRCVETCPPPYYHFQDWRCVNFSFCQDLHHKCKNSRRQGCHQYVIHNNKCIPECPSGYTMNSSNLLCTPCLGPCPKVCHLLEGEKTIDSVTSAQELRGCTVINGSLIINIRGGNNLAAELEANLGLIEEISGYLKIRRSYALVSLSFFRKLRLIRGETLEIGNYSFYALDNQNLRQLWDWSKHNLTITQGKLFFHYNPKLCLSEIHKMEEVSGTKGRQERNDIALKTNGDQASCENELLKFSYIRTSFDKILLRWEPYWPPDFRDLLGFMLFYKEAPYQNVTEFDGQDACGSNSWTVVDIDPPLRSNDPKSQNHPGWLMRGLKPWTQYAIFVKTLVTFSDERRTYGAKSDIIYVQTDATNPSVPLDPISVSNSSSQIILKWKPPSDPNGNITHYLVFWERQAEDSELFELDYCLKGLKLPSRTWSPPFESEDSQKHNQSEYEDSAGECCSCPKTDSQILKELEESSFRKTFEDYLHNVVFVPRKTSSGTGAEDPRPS", "T1 sequence (P06213 763-1382 limits assumed)": "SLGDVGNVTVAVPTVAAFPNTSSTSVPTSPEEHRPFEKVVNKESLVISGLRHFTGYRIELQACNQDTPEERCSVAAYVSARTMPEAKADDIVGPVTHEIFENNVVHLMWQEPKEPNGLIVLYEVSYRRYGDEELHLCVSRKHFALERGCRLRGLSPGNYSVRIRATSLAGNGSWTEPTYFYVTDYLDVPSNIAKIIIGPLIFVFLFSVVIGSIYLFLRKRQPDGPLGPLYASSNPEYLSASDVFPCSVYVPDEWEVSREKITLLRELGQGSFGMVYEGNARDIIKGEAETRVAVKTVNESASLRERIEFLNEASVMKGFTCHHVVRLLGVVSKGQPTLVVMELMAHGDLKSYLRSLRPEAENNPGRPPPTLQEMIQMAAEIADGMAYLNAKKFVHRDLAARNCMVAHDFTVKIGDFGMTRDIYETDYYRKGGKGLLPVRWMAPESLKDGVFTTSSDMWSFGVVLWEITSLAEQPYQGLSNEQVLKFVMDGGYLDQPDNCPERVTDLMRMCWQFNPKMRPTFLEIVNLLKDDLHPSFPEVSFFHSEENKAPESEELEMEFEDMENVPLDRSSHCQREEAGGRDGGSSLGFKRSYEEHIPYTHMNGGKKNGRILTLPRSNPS", "assay": "IR autophosphorylation (tyrosine kinase activity of purified insulin receptor)", "assay_type": "biochemical", "settings": "for EC50: insulin-induced, 95% confidence intervals printed: K^k 2.2-7.2 μM, D^k 0.3-2.2 μM; for inhibition of basal activity of IR: no insulin added", "protocol": "When peptide was used, it was added in 5.0 μl, the volume adjusted to 20 μl by adding buffer, and the mixture incubated (1 hr, 4° C.). After incubation, 10 μl of a solution containing 2.5 μCi ^32 P-labeled ATP (3,000 Ci/mmol; γ-labeled; Amersham), 50 mM HEPES, pH 7.6, 150 mM NaCl, 0.1% Triton X-100, 37.5 μM unlabeled ATP, 15 mM MgCl2, and 6 MnCl2 was added to a final volume of 30 μl. The mixture was then incubated for 30 min. at 24° C.\nAfter incubation, 15 μl sample buffer was added, and the sample was boiled for 5 min., and run on 10% SDS-PAGE overnight. The gel was dried, and autoradiograms processed with an exposure time of 5-10 hr. For quantitative estimates the β-subunit band of IR and the IRKD bands were cut out and counted dry (Cerenkov) in a scintillation counter."}, "[2]": {"assay": "Peptide depletion (degradation or adsorption) during the experimental period, by HPLC and 125I-label", "assay_type": "physicochemical", "settings": "HPLC and 125I-labeled peptide; concentrations above 0.1 μM"}},
  "note": "Where a SMILES comes first, the peptide text is derived from it.",
  "data": [
    {"compound": "CC[C@H](C)[C@H](NC(=O)[C@H](CCC(N)=O)NC(=O)[C@@H](NC(=O)[C@H](CCC(=O)O)NC(=O)[C@H](CCCNC(=N)N)NC(=O)[C@@H](N)CCC(=O)O)[C@@H](C)O)C(=O)N[C@@H](C)C(=O)N[C@@H](CCCCN)C(=O)NCC(=O)N[C@@H](CC(N)=O)C(=O)N[C@@H](CCC(=O)O)C(=O)N[C@@H](CCC(N)=O)C(=O)N[C@@H](CO)C(=O)N[C@@H](Cc1ccccc1)C(=O)N[C@@H](CCCNC(=N)N)C(=O)N[C@H](C(=O)N[C@@H](CC(=O)O)C(=O)N[C@@H](CC(C)C)C(=O)N[C@@H](CCCNC(=N)N)C(=O)N[C@H](C(=O)N[C@@H](CC(C)C)C(=O)N[C@@H](CC(C)C)C(=O)N[C@@H](CCCNC(=N)N)C(=O)N[C@@H](Cc1ccc(O)cc1)C(=O)N[C@@H](Cc1ccc(O)cc1)C(=O)O)[C@@H](C)O)C(C)C", "note": "[D^k-(61-85), ERETQIAKGNEQSFRVDLRTLLRYY] (H-ERETQIAKGNEQSFRVDLRTLLRYY-OH)", "values": [
      {"measurement": "EC50", "setting": "[1]", "result": 1200, "unit": "nM"},
      {"measurement": "inhibition of basal activity of IR", "setting": "[1]", "result": "24-40%"}
    ]},
    {"compound": "CC[C@H](C)[C@H](NC(=O)[C@H](CCC(N)=O)NC(=O)[C@@H](NC(=O)[C@H](CC(N)=O)NC(=O)[C@H](CCCNC(=N)N)NC(=O)[C@@H](N)CCC(=O)O)[C@@H](C)O)C(=O)N[C@@H](C)C(=O)N[C@@H](CCCCN)C(=O)NCC(=O)N[C@@H](CC(N)=O)C(=O)N[C@@H](CCC(=O)O)C(=O)N[C@@H](CCC(N)=O)C(=O)N[C@H](C(=O)N[C@@H](Cc1ccccc1)C(=O)N[C@@H](CCCNC(=N)N)C(=O)N[C@H](C(=O)N[C@@H](CC(N)=O)C(=O)N[C@@H](CC(C)C)C(=O)N[C@@H](CCCNC(=N)N)C(=O)N[C@H](C(=O)N[C@@H](C)C(=O)N[C@@H](CC(C)C)C(=O)N[C@@H](CCCNC(=N)N)C(=O)N[C@@H](Cc1ccc(O)cc1)C(=O)N[C@@H](Cc1ccc(O)cc1)C(=O)O)[C@@H](C)O)C(C)C)[C@@H](C)CC", "note": "[K^k-(61-85)] (H-ERNTQIAKGNEQIFRVNLRTALRYY-OH)", "values": [
      {"measurement": "EC50", "setting": "[1]", "result": 4000, "unit": "nM"},
      {"measurement": "inhibition of basal activity of IR", "setting": "[1]", "result": "24-40%"}
    ]},
    {"compound": "dynorphin A", "values": [
      {"measurement": "depletion (degradation or adsorption) during the experimental period", "setting": "[2]", "result": "No significant depletion"}
    ]}
  ]
}
